Reference: ChEMBL document CHEMBL5550199, “Rational In Silico Design of Selective TMPRSS6 Peptidomimetic Inhibitors via Exploitation of the S2 Subpocket” (J Med Chem, 2024)
Converted amounts (≈) assume the structure as drawn.

Target: T1, Suppressor of tumorigenicity 14 protein (Homo sapiens, UniProt Q9Y5Y6)
T1 sequence (Q9Y5Y6 whole entry): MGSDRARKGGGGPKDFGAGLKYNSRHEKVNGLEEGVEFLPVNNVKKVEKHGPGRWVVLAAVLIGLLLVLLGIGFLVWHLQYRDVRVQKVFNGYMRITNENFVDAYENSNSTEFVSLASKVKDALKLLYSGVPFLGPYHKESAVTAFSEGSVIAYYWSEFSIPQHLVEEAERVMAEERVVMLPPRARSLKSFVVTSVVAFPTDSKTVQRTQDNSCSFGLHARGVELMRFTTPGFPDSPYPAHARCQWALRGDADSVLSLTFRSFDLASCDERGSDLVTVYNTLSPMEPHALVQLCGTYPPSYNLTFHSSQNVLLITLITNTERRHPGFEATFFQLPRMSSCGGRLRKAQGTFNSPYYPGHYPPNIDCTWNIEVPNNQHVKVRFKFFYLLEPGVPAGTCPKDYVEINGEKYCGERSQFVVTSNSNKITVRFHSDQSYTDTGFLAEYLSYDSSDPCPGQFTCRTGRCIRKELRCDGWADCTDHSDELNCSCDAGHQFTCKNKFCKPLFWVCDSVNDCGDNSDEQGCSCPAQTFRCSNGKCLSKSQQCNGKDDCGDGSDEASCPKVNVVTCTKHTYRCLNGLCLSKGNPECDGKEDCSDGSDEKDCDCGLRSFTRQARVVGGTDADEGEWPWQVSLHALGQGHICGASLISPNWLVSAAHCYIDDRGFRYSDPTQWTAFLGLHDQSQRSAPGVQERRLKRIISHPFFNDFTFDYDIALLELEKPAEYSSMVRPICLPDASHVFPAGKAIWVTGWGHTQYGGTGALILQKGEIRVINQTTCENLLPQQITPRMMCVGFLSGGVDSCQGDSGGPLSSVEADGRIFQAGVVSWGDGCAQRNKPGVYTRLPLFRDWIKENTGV
Assay: Binding affinity to recombinant human Matriptase using Boc-QAR-AMC as substrate assessed as inhibition constant by fluorescence based analysis
Conditions: not given
In the case of `CC(C)C[C@H](NC(=O)[C@H](Cc1cscn1)NC(=O)CCc1ccccc1)C(=O)N[C@@H](CCCNC(=N)N)C(=O)c1nc2ccccc2s1`, the Ki is reported as 5 nM.
With `N=C(N)NCCC[C@H](NC(=O)[C@@H](NC(=O)[C@H](Cc1cscn1)NC(=O)CCc1ccccc1)C1CCCCC1)C(=O)c1nc2ccccc2s1` the Ki was 99.2 nM.
With `N=C(N)NCCC[C@H](NC(=O)[C@H](Cc1ccc2ccccc2c1)NC(=O)[C@H](Cc1cscn1)NC(=O)CCc1ccccc1)C(=O)c1nc2ccccc2s1` the Ki was 53 nM.
With `N=C(N)NCCC[C@H](NC(=O)[C@H](Cc1cccc2ccccc12)NC(=O)[C@H](Cc1cscn1)NC(=O)CCc1ccccc1)C(=O)c1nc2ccccc2s1` the Ki was 45.3 nM.

Test system: not listed separately
Assay: Cytotoxicity against HEK cells assessed as reduction in cell viability measured for 24 hrs by celltiter-glo 2.0 assay
Format: toxicity, cell-based
Conditions: human
In the case of `N=C(N)NCCC[C@H](NC(=O)[C@@H](NC(=O)[C@H](Cc1cscn1)NC(=O)CCc1ccccc1)C1CCCCC1)C(=O)c1nc2ccccc2s1`, the Activity is reported as “Non-Toxic”.
With `N=C(N)NCCC[C@H](NC(=O)[C@H](Cc1cccc2ccccc12)NC(=O)[C@H](Cc1cscn1)NC(=O)CCc1ccccc1)C(=O)c1nc2ccccc2s1` the Activity was “Non-Toxic”.

Test system: not listed separately
Assay: Metabolic stability in Sprague-Dawley rat microsome assessed as intrinsic clearance measured for 120 mins in presence of NADPH by UPLC-MS analysis
Format: ADME
Conditions: microsomes, 2 h
For `N=C(N)NCCC[C@H](NC(=O)[C@@H](NC(=O)[C@H](Cc1cscn1)NC(=O)CCc1ccccc1)C1CCCCC1)C(=O)c1nc2ccccc2s1`, the CLH was 1.12 µL/min/mg.

Target: Coagulation factor X (Homo sapiens, UniProt P00742)
Sequence (P00742 41-179 limits assumed): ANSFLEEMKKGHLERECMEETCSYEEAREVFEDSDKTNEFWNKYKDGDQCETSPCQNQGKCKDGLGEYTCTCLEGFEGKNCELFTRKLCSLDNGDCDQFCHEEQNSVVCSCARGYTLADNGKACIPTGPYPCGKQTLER
Sequence (P00742 235-488 limits assumed): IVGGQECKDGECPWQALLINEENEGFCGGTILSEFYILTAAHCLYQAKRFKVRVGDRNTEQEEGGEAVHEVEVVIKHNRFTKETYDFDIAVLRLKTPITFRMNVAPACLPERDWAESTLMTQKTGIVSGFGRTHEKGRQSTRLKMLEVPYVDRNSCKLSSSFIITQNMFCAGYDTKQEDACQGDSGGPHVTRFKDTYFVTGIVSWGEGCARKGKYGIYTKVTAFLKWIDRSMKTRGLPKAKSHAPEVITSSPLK
Assay: Inhibition of recombinant human FXA using Boc-QAR-AMC as substrate assessed as inhibition constant by fluorescence based analysis
Conditions: not given
With `N=C(N)NCCC[C@H](NC(=O)[C@@H](NC(=O)[C@H](Cc1cscn1)NC(=O)CCc1ccccc1)C1CCCCC1)C(=O)c1nc2ccccc2s1` the Ki was > 10 µM.

Test system: not listed separately
Assay: Solubility of compound in PBS at pH 7.4 measured for 90 mins by UPLC analysis
Format: physicochemical
Conditions: buffer, pH 7.4, 1.5 h
Work on `N=C(N)NCCC[C@H](NC(=O)[C@@H](NC(=O)[C@H](Cc1cscn1)NC(=O)CCc1ccccc1)C1CCCCC1)C(=O)c1nc2ccccc2s1` yielded a solubility of 158 µM (≈ 113 µg/mL).

Target: Prothrombin (Homo sapiens, UniProt P00734)
Assay: Inhibition of recombinant human thrombin using Boc-QAR-AMC as substrate assessed as inhibition constant by fluorescence based analysis
Conditions: not given
Work on `N=C(N)NCCC[C@H](NC(=O)[C@@H](NC(=O)[C@H](Cc1cscn1)NC(=O)CCc1ccccc1)C1CCCCC1)C(=O)c1nc2ccccc2s1` yielded a Ki of 120 nM.

Species on record: Homo sapiens
Assay: (§1) Selectivity index, ratio of Ki for mixed inhibition of recombinant human Matriptase using Boc-QAR-AMC as substrate assessed as inhibition constant by fluorescence based analysis to Ki for competitive tight binding inhibition of recombinant human TMPRSS6 using Boc-QAR-AMC as substrate assessed as inhibition constant by fluorescence based analysis
Conditions: not given
`N=C(N)NCCC[C@H](NC(=O)[C@@H](NC(=O)[C@H](Cc1cscn1)NC(=O)CCc1ccccc1)C1CCCCC1)C(=O)c1nc2ccccc2s1` gave a Ratio Ki of 19.

Target: T2, Transmembrane protease serine 6 (Homo sapiens, UniProt Q8IU80)
T2 sequence (Q8IU80 whole entry): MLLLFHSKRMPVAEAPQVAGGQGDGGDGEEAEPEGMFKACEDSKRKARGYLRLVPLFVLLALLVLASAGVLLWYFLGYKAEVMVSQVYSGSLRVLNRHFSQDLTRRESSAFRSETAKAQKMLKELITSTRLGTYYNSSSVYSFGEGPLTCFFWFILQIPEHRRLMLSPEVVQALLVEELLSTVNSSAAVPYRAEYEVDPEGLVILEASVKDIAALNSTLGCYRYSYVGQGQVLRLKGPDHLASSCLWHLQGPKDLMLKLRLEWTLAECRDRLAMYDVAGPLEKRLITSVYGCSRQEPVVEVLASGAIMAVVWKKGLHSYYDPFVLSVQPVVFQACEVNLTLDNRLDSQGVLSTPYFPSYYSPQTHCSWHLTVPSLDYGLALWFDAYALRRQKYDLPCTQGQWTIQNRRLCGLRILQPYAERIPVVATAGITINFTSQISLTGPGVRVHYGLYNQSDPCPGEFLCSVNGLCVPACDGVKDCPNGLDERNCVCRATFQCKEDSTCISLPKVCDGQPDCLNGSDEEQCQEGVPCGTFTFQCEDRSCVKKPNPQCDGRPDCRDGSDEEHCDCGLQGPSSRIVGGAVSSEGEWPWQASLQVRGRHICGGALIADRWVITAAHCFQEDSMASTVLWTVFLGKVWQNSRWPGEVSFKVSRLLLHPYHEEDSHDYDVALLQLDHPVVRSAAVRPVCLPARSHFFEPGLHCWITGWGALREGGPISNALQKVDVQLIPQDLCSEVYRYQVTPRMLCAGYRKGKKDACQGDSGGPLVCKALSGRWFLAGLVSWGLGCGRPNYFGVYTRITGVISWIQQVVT
Assay: Binding affinity to recombinant human TMPRSS6 using Boc-QAR-AMC as substrate assessed as inhibition constant by fluorescence based analysis
Conditions: not given
Compound `CC(C)C[C@H](NC(=O)[C@H](Cc1cscn1)NC(=O)CCc1ccccc1)C(=O)N[C@@H](CCCNC(=N)N)C(=O)c1nc2ccccc2s1` has a Ki of 1.5 nM.
Compound `N=C(N)NCCC[C@H](NC(=O)[C@@H](NC(=O)[C@H](Cc1cscn1)NC(=O)CCc1ccccc1)C1CCCCC1)C(=O)c1nc2ccccc2s1` has a Ki of 3.4 nM.
Work on `N=C(N)NCCC[C@H](NC(=O)[C@H](Cc1ccc2ccccc2c1)NC(=O)[C@H](Cc1cscn1)NC(=O)CCc1ccccc1)C(=O)c1nc2ccccc2s1` yielded a Ki of 7.9 nM.
Compound `N=C(N)NCCC[C@H](NC(=O)[C@H](Cc1cccc2ccccc12)NC(=O)[C@H](Cc1cscn1)NC(=O)CCc1ccccc1)C(=O)c1nc2ccccc2s1` has a Ki of 3.7 nM.

Species on record: Homo sapiens
Assay: as §1, with “binding affinity to” for “mixed inhibition of”, “for” for “for competitive tight”, “affinity to” for “inhibition of”
Conditions: not given
Compound `CC(C)C[C@H](NC(=O)[C@H](Cc1cscn1)NC(=O)CCc1ccccc1)C(=O)N[C@@H](CCCNC(=N)N)C(=O)c1nc2ccccc2s1` has a Ratio Ki of 3.3.
Work on `N=C(N)NCCC[C@H](NC(=O)[C@@H](NC(=O)[C@H](Cc1cscn1)NC(=O)CCc1ccccc1)C1CCCCC1)C(=O)c1nc2ccccc2s1` yielded a Ratio Ki of 29.
`N=C(N)NCCC[C@H](NC(=O)[C@H](Cc1ccc2ccccc2c1)NC(=O)[C@H](Cc1cscn1)NC(=O)CCc1ccccc1)C(=O)c1nc2ccccc2s1` gave a Ratio Ki of 6.7.
For `N=C(N)NCCC[C@H](NC(=O)[C@H](Cc1cccc2ccccc12)NC(=O)[C@H](Cc1cscn1)NC(=O)CCc1ccccc1)C(=O)c1nc2ccccc2s1`, the Ratio Ki was 12.

Target: Furin (Homo sapiens, UniProt P09958)
Sequence (P09958 whole entry): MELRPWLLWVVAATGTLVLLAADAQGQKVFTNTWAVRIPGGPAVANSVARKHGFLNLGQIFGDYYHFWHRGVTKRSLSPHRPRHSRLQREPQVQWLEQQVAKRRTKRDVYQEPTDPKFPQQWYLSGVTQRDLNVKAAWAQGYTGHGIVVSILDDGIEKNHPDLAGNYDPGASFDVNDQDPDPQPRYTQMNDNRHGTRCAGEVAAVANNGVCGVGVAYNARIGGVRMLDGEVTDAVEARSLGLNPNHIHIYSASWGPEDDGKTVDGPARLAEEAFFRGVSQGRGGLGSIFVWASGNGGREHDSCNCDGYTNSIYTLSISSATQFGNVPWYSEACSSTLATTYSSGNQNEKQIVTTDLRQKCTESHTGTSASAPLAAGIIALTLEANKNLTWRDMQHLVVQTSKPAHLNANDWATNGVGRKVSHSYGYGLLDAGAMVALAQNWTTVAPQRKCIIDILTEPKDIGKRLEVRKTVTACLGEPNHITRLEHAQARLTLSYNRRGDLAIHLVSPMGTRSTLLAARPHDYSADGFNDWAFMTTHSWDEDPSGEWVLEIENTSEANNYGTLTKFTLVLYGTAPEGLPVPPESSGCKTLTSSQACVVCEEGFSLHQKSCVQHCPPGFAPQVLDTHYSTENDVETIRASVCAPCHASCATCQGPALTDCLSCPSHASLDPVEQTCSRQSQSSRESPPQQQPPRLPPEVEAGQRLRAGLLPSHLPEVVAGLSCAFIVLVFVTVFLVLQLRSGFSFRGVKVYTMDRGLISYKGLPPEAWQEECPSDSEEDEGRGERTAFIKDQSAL
Assay: Inhibition of recombinant human furin using Boc-RVRR-AMC as substrate assessed as inhibition constant by fluorescence based analysis
Conditions: not given
For `N=C(N)NCCC[C@H](NC(=O)[C@@H](NC(=O)[C@H](Cc1cscn1)NC(=O)CCc1ccccc1)C1CCCCC1)C(=O)c1nc2ccccc2s1`, the Ki was > 10 µM.

Species on record: Homo sapiens
Assay: Selectivity index, ratio of IC50 for inhibition of human Matriptase transfected in HEK293SL cells using Boc-QAR-AMC as substrate to IC50 for inhibition of human TMPRSS6 transfected in HEK293SL cells using Boc-QAR-AMC as substrate
Format: cell-based
Conditions: not given
`N=C(N)NCCC[C@H](NC(=O)[C@@H](NC(=O)[C@H](Cc1cscn1)NC(=O)CCc1ccccc1)C1CCCCC1)C(=O)c1nc2ccccc2s1` gave a Ratio IC50 of 16.

Target: T2, Transmembrane protease serine 6
Assay: Inhibition of human TMPRSS6 transfected in HEK293SL cells using Boc-QAR-AMC as substrate measured for 24 hrs
Format: cell-based
Conditions: not given
`N=C(N)NCCC[C@H](NC(=O)[C@@H](NC(=O)[C@H](Cc1cscn1)NC(=O)CCc1ccccc1)C1CCCCC1)C(=O)c1nc2ccccc2s1` gave an IC50 of 22 nM.

Test system: not listed separately
Assay: Apparent Permeability of compound in PBS buffer at pH 7.4 incubated for 17 hrs by PAMPA assay
Format: ADME
Conditions: pH 7.4, 17 h
For `N=C(N)NCCC[C@H](NC(=O)[C@@H](NC(=O)[C@H](Cc1cscn1)NC(=O)CCc1ccccc1)C1CCCCC1)C(=O)c1nc2ccccc2s1`, the Papp was 0.017 10^-6 cm/s.

Test system: not listed separately
Assay: Stability in Sprague-Dawley rat plasma assessed as parent compound remaining at 24 hrs by UPLC-MS analysis
Format: ADME, cell-free
Conditions: not given
`N=C(N)NCCC[C@H](NC(=O)[C@@H](NC(=O)[C@H](Cc1cscn1)NC(=O)CCc1ccccc1)C1CCCCC1)C(=O)c1nc2ccccc2s1` showed a Stability of 65%.

Target: T2, Transmembrane protease serine 6
Assay: Competitive tight binding inhibition of recombinant human TMPRSS6 using Boc-QAR-AMC as substrate assessed as inhibition constant by fluorescence based analysis
Conditions: not given
`N=C(N)NCCC[C@H](NC(=O)[C@@H](NC(=O)[C@H](Cc1cscn1)NC(=O)CCc1ccccc1)C1CCCCC1)C(=O)c1nc2ccccc2s1` gave a Ki of 5.3 nM.

Target: T1, Suppressor of tumorigenicity 14 protein
Assay: Inhibition of human Matriptase transfected in HEK293SL cells using Boc-QAR-AMC as substrate measured for 24 hrs
Format: cell-based
Conditions: not given
With `N=C(N)NCCC[C@H](NC(=O)[C@@H](NC(=O)[C@H](Cc1cscn1)NC(=O)CCc1ccccc1)C1CCCCC1)C(=O)c1nc2ccccc2s1` the IC50 was 352 nM.

Target: T1, Suppressor of tumorigenicity 14 protein
Assay: Mixed inhibition of recombinant human Matriptase using Boc-QAR-AMC as substrate assessed as inhibition constant by fluorescence based analysis
Conditions: not given
In the case of `N=C(N)NCCC[C@H](NC(=O)[C@@H](NC(=O)[C@H](Cc1cscn1)NC(=O)CCc1ccccc1)C1CCCCC1)C(=O)c1nc2ccccc2s1`, the Ki is reported as 100 nM.

Test system: not listed separately
Assay: Metabolic stability in Sprague-Dawley rat microsome assessed as half life measured for 120 mins in presence of NADPH by UPLC-MS analysis
Format: ADME
Conditions: microsomes, 2 h
With `N=C(N)NCCC[C@H](NC(=O)[C@@H](NC(=O)[C@H](Cc1cscn1)NC(=O)CCc1ccccc1)C1CCCCC1)C(=O)c1nc2ccccc2s1` the t1/2 was > 120 min.
